The results in this text go back to the SangsterLogP compilation.

As a reminder, the logD is lipophilicity at a set pH, counting ionised and neutral species.

This data set in a line: method code SF-AS, from DOI: 10.1002/ardp.19903230114, PMID: 2334269. To be noted: pH 7.4.
`c1ccc(COC2(c3ccccc3)CN3CCCCC3CO2)cc1` (configuration not stated) gave a logD of 1.95.

`CCCCN1CCOC(OCC)(c2ccccc2)C1` (configuration not stated) displayed a logD of 2.

`OC1(c2ccccc2)CN2CCCCC2CO1` (configuration not stated) yielded a pH-dependent lipophilicity (logD) of 1.77.

Consider `CCCCCOC1(c2ccccc2)CN(C)C2CCCCC2O1` (configuration not stated), for which the logD was determined as 2.05.

`CCCOC1(c2ccccc2)CN(C)C2CCCCC2O1` (configuration not stated) returned a logD of 1.91.

`CCCCN1CCOC(OCCC)(c2ccccc2)C1` (configuration not stated) registered a logD of 2.03.

Turning to `CC(C)COC1(c2ccccc2)CN2CCCCC2CO1` (configuration not stated), the logD is 1.95. This logD and that of the molecule before are within 0.2 log units of each other.

For `CN1CC(O)(c2ccccc2)OC2CCCCC21` (configuration not stated), the logD was 1.81.

`CCOC1(c2ccccc2)CN2CCCCC2CO1` (configuration not stated) registered a logD of 1.87.

For the molecule `CCCCOC1(c2ccccc2)CN2CCCCC2CO1` (configuration not stated), the pH-dependent lipophilicity (logD) was found to be 1.94.

For the molecule `CCCCOC1(c2ccccc2)CN(CCCC)CCO1` (configuration not stated), the logD stood at 2.13. The logD values of the last two molecules are within 0.2 log units of each other.

The molecule `CCCOC1(c2ccccc2)CN2CCCCC2CO1` (configuration not stated) showed a logD of 1.92.
